Patent publication US11596648B2, “Emollient topical disinfectants” (priority 2016, dated 2023)
Like-named read-outs stand apart in the source and are kept apart here.

How the values were obtained:
[1] = Iodine vapor detection with iodine sensitive paper disc in vial lid (Example 4); conditions: acetate buffer; cyclodextrin 50 mM
Procedure: Solutions of these cyclodextrins were prepared in acetate buffer or propylene glycol, both containing molecular iodine as follows. Cyclodextrins were weighed and added to vials. Saturated solutions of molecular iodine (Alfa Aesar 14248 Lot 104Z003) were then prepared in either: (a) […] acetate buffer (pH 4.5); or (b) propylene glycol.
Aliquots of each solution of the different cyclodextrins were added to vials to a final cyclodextrin concentration of 50 mM. […] The screw-top lid of each vial was fitted with an iodine sensitive paper disc (Fluka #37215, Lot SZBF1310V) that fit tightly in the lid so the paper was exposed to the atmosphere in the vial which would allow the paper to react with molecular iodine that was in the vapor phase.
At time points of: one (1) hour; six (6) hours; and twenty-four (24) hours, the color of the indicator paper on the inside of the screw-top lids were examined and photographed.

[2] = Viscosity with Brookfield DV2T viscometer (Example 7); assay type: physicochemical; conditions: for viscosity: extrapolated to zero shear
Procedure: Viscosity was measured using a Brookfield DV2T viscometer which allowed for the precise control of the temperature at which the viscosity was measured. The Brookfield DV2T was programmed to measured viscosity at different shear rates by systematically ramping the spindle (CP-40 or CP-52) speed up and then down as shown in FIG. 4A for propylene glycol at 25° C.
The viscosity values were fitted to a curve and extrapolated to the zero shear value to arrive at a final estimate for viscosity.
One series of samples was prepared without molecular iodine and a second series was prepared that contained 800 ppm molecular iodine. The viscosity of these samples was measured as described above using an up-down rate ramp program. The results were fitted to an Ostwald model, i.e. stress versus shear rate curve fit, and the consistency constant was reported as the viscosity.

[3] = Potassium iodide starch paper coloration versus time, vapor pressure of molecular iodine (Example 5); conditions: cyclodextrin 50 mM; for reduction in vapor pressure of molecular iodine in the acetate buffer (ranking): 0.1M acetate buffer pH 4.5; for ability to reduce the vapor pressure of molecular iodine in an aqueous environment (conclusion): acetate buffer
From the text: Alpha cyclodextrin (cat. number C4642, Sigma Life Sciences, Lot 2X SLBK4630V, CAS 10016-20-3), beta cyclodextrin (cat. number C4767, Sigma Life Sciences, Lot MKBV2085V, CAS 7585-39-9), gamma cyclodextrin (cat. number C4892, Sigma Life Sciences, Lot SLBL4156V, CAS 17465-86-0), methyl beta cyclodextri, (cat. number C4555, Sigma Life Sciences, Lot WXBC0745V, CAS 128446-36-6) and 2-hydroxypropyl-beta-cyclodextrin (cat. number H107, Sigma Life Sciences, Lot WXBC0083V, CAS 128446-35-5) were weighed into vials.
Aliquots of saturated molecular iodine in either propylene glycol or 0.1M acetate buffer (pH 4.5) were added to the vials to yield a final cyclodextrin concentration of 50 mM. The samples were lightly vortexed to dissolve the cyclodextrins. Control vials were prepared consisting of saturated iodine in either propylene glycol or 0.1M acetate buffer pH 4.5.
Analytical potassium iodide starch paper (Fluka #37215, Lot SZBF1310V) was cut into circle and placed inside the screw-top lid of the vials in a manner that held the paper in place once the lid was screwed onto the vial.
Provided in FIGS. 2A-2L are pictures of the starch paper taken at different time points to document the color of the starch paper versus time of exposure to the atmosphere inside of the vial. The operating assumption was that the color of the starch paper would be proportional to the time of exposure to the concentration of molecular iodine in the atmosphere inside of the vial.
The concentration of molecular iodine in the atmosphere inside of the vial is proportional to the vapor pressure of dissolved molecular iodine in the liquid phase.

[4] = cited from earlier work
[5] = rats, 1 hour; cited from earlier work
[6] = cited from earlier work; remark: listed apart in the source

In the case of OC[C@H]1O[C@@H]2O[C@H]3[C@H](O)[C@@H](O)[C@@H](O[C@H]4[C@H](O)[C@@H](O)[C@@H](O[C@H]5[C@H](O)[C@@H](O)[C@@H](O[C@H]6[C@H](O)[C@@H](O)[C@@H](O[C@H]7[C@H](O)[C@@H](O)[C@@H](O[C@H]8[C@H](O)[C@@H](O)[C@@H](O[C@H]9[C@H](O)[C@@H](O)[C@@H](O[C@H]1[C@H](O)[C@H]2O)O[C@@H]9CO)O[C@@H]8CO)O[C@@H]7CO)O[C@@H]6CO)O[C@@H]5CO)O[C@@H]4CO)O[C@@H]3CO [gamma cyclodextrin, γ-cyclodextrin], the “color of iodine indicator paper / iodine vapor at 6 hours” value [1] is reported as “clearly detected” and the “color of iodine indicator paper / iodine vapor at 24 hours” value [1] is reported as “deeply stained”.
For CC(O)CO (stereo not drawn) [propylene glycol], the viscosity ([2]; 25° C.) was 59 cP, the viscosity ([2]; 33° C.) was 95 cP and the flow behaviour ([2]; viscosity versus shear) was “behaves like a Newtonian fluid”.
In the case of “hydroxypropyl-β-cyclodextrin [hyroxypropyl-β-cyclodextrin]”, the “reduction in vapor pressure of molecular iodine in the acetate buffer (ranking)” value [3] is reported as “greatest reduction in vapor pressure”, the “ability to reduce the vapor pressure of molecular iodine in an aqueous environment (conclusion)” value [3] is reported as “most effective” and the “color of iodine indicator paper / iodine vapor at 24 hours” value [1] is reported as “clearly detected”. For the same molecule, the “effect on vapor pressure of molecular iodine in an aqueous environment” value [1] was “reduces the vapor pressure of molecular iodine”.
In the case of II [Molecular iodine, molecular iodine], the “maximum iodine that can build up in a closed container” value ([4]; 25° C., standard atmospheric pressure) is given as at most 394 ppm, the vapor pressure ([4]; 25° C.) is given as 0.3 mm and the vapor pressure ([4]; 38.7° C.) is given as 1 mm. For the same molecule, the “lowest lethal atmospheric concentration” value [5] was 80 ppm, the permissible exposure limit ([6]; NIOSH, OSHA) was 0.1 ppm and the “concentration with severe eye irritation” value ([6]; after 2 minutes) was 1.63 ppm. The “concentration at which humans can work undisturbed” value ([6]; iodine vapor, inhalation) was 0.1 ppm, the “concentration at which humans work with difficulty” value ([6]; iodine vapor, inhalation) was 0.15-0.2 ppm and the “concentration that humans cannot tolerate” value ([6]; iodine vapor, inhalation) was at least 0.3 ppm. The “level at which odor is detected” value ([6]; iodine vapor) was “about 0.9 ppm”.
With methyl-β-cyclodextrin the “reduction in vapor pressure of molecular iodine in the acetate buffer (ranking)” value [3] was “greatest reduction in vapor pressure”, the “ability to reduce the vapor pressure of molecular iodine in an aqueous environment (conclusion)” value [3] was “most effective” and the “effect on vapor pressure of molecular iodine in an aqueous environment” value [1] was “reduces the vapor pressure of molecular iodine”.
In the case of OC[C@H]1O[C@@H]2O[C@H]3[C@H](O)[C@@H](O)[C@@H](O[C@H]4[C@H](O)[C@@H](O)[C@@H](O[C@H]5[C@H](O)[C@@H](O)[C@@H](O[C@H]6[C@H](O)[C@@H](O)[C@@H](O[C@H]7[C@H](O)[C@@H](O)[C@@H](O[C@H]8[C@H](O)[C@@H](O)[C@@H](O[C@H]1[C@H](O)[C@H]2O)O[C@@H]8CO)O[C@@H]7CO)O[C@@H]6CO)O[C@@H]5CO)O[C@@H]4CO)O[C@@H]3CO [β-cyclodextrin], the “color of iodine indicator paper / iodine vapor at 6 hours” value [1] is reported as “clearly detected” and the “color of iodine indicator paper / iodine vapor at 24 hours” value [1] is reported as “deeply stained”.
